Results taken from patent publication US9790221B2, “Heteroaryl compounds as IRAK inhibitors and uses thereof” (Merck Patent GmbH, priority 2014, dated 2017).
Counter-ions that a name gives are not always drawn.

Experiments:
[1] = molecular target: IRAK1 (His-TEV-IRAK1 (194-712)) (Homo sapiens (Human), UniProt P51617); test: IRAK1 enzymatic assay; format: biochemical
Procedure, shortened: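 Compounds ([…] down to 1 nM) were incubated 3 h at 30° C with His-TEV-IRAK1 (194-712, 15 ng/well) and 1 μM [33P]-labelled ATP in 50 mM Hepes pH 7.0, 10 mM MgCl2. After EDTA stop and washing, the retained autophosphorylation signal was measured by scintillation in streptavidin-coated plates.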

[2] = molecular target: IRAK4 (Homo sapiens (Human), UniProt Q9NWZ3); test: IRAK4 enzymatic assay; format: biochemical
Procedure, shortened: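 Radiometric streptavidin FlashPlate read: 3 h, 30° C incubation of His-TEV-IRAK4 (20 ng/well), STK1-biotin substrate (300 nM) and ATP (2 μM, [^33P]-labelled) in Hepes pH 7.0, MgCl2 10 mM, MnCl2 5 mM. Compounds from 20 µM down to 1 nM, 2% DMSO controls; reaction quenched with EDTA.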

[3] = system: TLR7 induced IL-6 secretion in human mononuclear cells (PBMC's); test: TLR7 induced IL-6 in human PBMC's; format: cell-based; conditions: Homo sapiens, PBMC, read-out: TLR7 induced IL-6 secretion in hPBMC's (IC50)
Description: TLR7 Induced IL-6 in Human PBMC's
Human PBMC assay was used as one of the functional assay a to monitor the activity of IRAK1 and IRAK4 small molecule inhibitors on TLR7 induced IL-6 secretion in human mononuclear cells (PBMC's). Human PBMCs were prepared from buffy coats (whole blood enriched with leukocytes and platelets) obtained from healthy volunteers used either fresh or frozen are plated in assay media (RPMI+2% P/S/L-glu+10% HI-FBS) and pre-treated with compounds in DMSO/media (range of concentrations from 25 uM to 0.4 nM) or controls (0.25% DMSO) for 30 minutes at 37° C. in assay media. Following pre-treatment with IRAK1 and IRAK4 inhibitors, PBMC's were stimulated with TLR7 specific ligand (2 uM) overnight (16-18 hrs) at 37° C. After incubation supernatant was transferred to 384 well PE AlphaPlate-384 (6005350) and IL-6 is quantified using Perkin Elmer IL-6 Alpha LISA kit (AL223C). Plates were read on an Envision® plate reader with Alpha Technology®.

Sequence of IRAK1 (His-TEV-IRAK1 (194-712)) (P51617 194-712): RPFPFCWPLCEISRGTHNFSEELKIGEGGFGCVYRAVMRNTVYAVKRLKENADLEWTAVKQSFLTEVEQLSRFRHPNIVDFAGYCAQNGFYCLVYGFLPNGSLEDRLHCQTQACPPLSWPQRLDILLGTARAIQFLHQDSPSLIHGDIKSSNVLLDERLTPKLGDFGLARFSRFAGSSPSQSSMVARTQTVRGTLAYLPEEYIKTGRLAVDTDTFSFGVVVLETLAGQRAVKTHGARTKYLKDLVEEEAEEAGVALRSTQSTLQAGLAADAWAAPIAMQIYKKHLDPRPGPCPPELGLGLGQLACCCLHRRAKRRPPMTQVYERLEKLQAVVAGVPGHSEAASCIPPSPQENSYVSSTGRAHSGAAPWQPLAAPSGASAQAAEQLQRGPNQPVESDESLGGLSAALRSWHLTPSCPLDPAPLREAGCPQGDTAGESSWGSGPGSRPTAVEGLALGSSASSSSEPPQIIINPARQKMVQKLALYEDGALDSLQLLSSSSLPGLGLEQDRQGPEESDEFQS
Sequence of IRAK4 (Q9NWZ3 whole entry): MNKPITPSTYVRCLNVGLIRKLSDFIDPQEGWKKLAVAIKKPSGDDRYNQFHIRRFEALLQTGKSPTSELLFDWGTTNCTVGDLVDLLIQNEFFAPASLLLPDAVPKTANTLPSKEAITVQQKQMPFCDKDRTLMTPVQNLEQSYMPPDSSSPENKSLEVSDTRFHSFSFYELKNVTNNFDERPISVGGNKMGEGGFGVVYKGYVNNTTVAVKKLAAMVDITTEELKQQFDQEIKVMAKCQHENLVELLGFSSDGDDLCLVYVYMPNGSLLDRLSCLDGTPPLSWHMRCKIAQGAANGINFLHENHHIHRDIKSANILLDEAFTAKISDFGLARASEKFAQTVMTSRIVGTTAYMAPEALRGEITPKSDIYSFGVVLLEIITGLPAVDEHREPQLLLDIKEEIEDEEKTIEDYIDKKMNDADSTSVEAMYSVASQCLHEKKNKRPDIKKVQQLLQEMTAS

Structure (SMILES)	IC50 [1]	IC50 [2]	IC50 [3]
Cn1cc(-c2cccc(-c3ncc(-c4cnn(C)c4)c(OCC4(C)COC4)n3)c2)cn1 [Example 9, 4-(3-Methyl-oxetan-3-ylmethoxy)-5-(1-methyl-1H-pyrazol-4-yl)-2-[3-(1-methyl-1H-pyrazol-4-yl)-phenyl]-pyrimidine]	1 to 5 µM	0.1 to 1 µM	1 to 5 µM
Cn1cc(-c2cccc(-c3ncc(-c4cnn(C)c4)c(OCC4COC4)n3)c2)cn1 [Example 11, 5-(1-Methyl-1H-pyrazol-4-yl)-2-[3-(1-methyl-1H-pyrazol-4-yl)-phenyl]-4-(oxetan-3-ylmethoxy)-pyrimidine]	> 5 µM	0.1 to 1 µM	1 to 5 µM
Cc1nnc(-c2cnc(-c3cccc(-c4cnn(C)c4)c3)nc2NC(C)C)s1 [Example 15, Isopropyl-[2-[3-(1-methyl-1H-pyrazol-4-yl)-phenyl]-5-(5-methyl-[1,3,4]thiadiazol-2-yl)-pyrimidin-4-yl]-amine]	0.1 to 1 µM	< 0.1 µM	0.1 to 1 µM
Cc1nnc(-c2cnc(-c3cccc(-c4cnn(C)c4)c3)nc2NC2CCCNC2)s1 (stereo not drawn) [Example 17, [2-[3-(1-Methyl-1H-pyrazol-4-yl)-phenyl]-5-(5-methyl-[1,3,4]thiadiazol-2-yl)-pyrimidin-4-yl]-piperidin-3-yl-amine Hydrochloride]	> 5 µM	< 0.1 µM	0.1 to 1 µM
Cn1cc(-c2cccc(-c3ncc(-c4nnc(C(=O)N5CC[C@@H](O)C5)s4)c(NC4CCCNC4)n3)c2)cn1 (stereo partly drawn) [Example 20, ((R)-3-Hydroxy-pyrrolidin-1-yl)-{5-[2-[3-(1-methyl-1H-pyrazol-4-yl)-phenyl]-4-(piperidin-3-ylamino)-pyrimidin-5-yl]-[1,3,4]thiadiazol-2-yl}-methanone Hydrochloride]	0.1 to 1 µM	1 to 5 µM	0.1 to 1 µM
CC(C)Nc1cc(-c2cccc(-c3cnn(C)c3)c2)ncc1-c1nnc(C(=O)N2CC[C@@H](O)C2)s1 [Example 21, ((R)-3-Hydroxy-pyrrolidin-1-yl)-(5-{4-isopropylamino-6-[3-(1-methyl-1H-pyrazol-4-yl)-phenyl]-pyridin-3-yl}-[1,3,4]thiadiazol-2-yl)-methanone]	1 to 5 µM	< 0.1 µM	1 to 5 µM
CC(C)Nc1cc(-c2cccc(-c3cnn(C)c3)n2)ncc1-c1nnc(C(=O)N2CC[C@@H](O)C2)s1 [Example 22, ((R)-3-Hydroxy-pyrrolidin-1-yl)-{5-[4-isopropylamino-6′-(1-methyl-1H-pyrazol-4-yl)-[2,2′]bipyridinyl-5-yl]-[1,3,4]thiadiazol-2-yl}-methanone]	0.1 to 1 µM	< 0.1 µM	0.1 to 1 µM
Cn1cc(-c2cccc(-c3ncc(-c4cnn(C)c4)c(NCc4ccncc4)n3)c2)cn1 [Example 37]	1 to 5 µM	0.1 to 1 µM	1 to 5 µM
Cn1cc(-c2cccc(-c3ncc(-c4cnn(C)c4)c(NC4CCOC4)n3)c2)cn1 (stereo not drawn) [Example 41]	0.1 to 1 µM	0.1 to 1 µM	1 to 5 µM
Cn1cc(-c2cccc(-c3ncc(-c4cnn(C)c4)c(N[C@H]4CC[C@@H](N)CC4)n3)c2)cn1 [Example 44]	0.1 to 1 µM	< 0.1 µM	0.1 to 1 µM
CN(CC1(F)COC1)c1nc(-c2cccc(-c3cnn(C)c3)c2)ncc1-c1cnn(C)c1 [Example 45]	1 to 5 µM	0.1 to 1 µM	1 to 5 µM
Cn1cc(-c2cccc(-c3ncc(-c4cnn(C)c4)c(N[C@H]4C[C@@H](O)C4)n3)c2)cn1 [Example 46]	0.1 to 1 µM	0.1 to 1 µM	> 5 µM
Cn1cc(-c2cccc(-c3ncc(-c4cnn(C)c4)c(N[C@H]4C[C@H](O)C4)n3)c2)cn1 [Example 47]	1 to 5 µM	0.1 to 1 µM	> 5 µM
Cn1cc(-c2cccc(-c3ncc(-c4cnn(C)c4)c(NC4CC(F)C4)n3)c2)cn1 (stereo not drawn) [Example 50]	0.1 to 1 µM	0.1 to 1 µM	1 to 5 µM

Second part, led by results:

IC50 [1]	IC50 [2]	Structure (SMILES)	IC50 [3]
0.1 to 1 µM	0.1 to 1 µM	Cn1cc(-c2cccc(-c3ncc(-c4ccn(C)n4)c(NCC4CCCNC4)n3)c2)cn1 (stereo not drawn) [Example 10, {5-(1-Methyl-1H-pyrazol-3-yl)-2-[3-(1-methyl-1H-pyrazol-4-yl)-phenyl]-pyrimidin-4-yl}-piperidin-3-ylmethyl-amine]	1 to 5 µM
0.1 to 1 µM	0.1 to 1 µM	Cn1cc(-c2cccc(-c3ncc(-c4cnn(C)c4)c(NCC4CCOCC4)n3)c2)cn1 [Example 13, {5-(1-Methyl-1H-pyrazol-4-yl)-2-[3-(1-methyl-1H-pyrazol-4-yl)-phenyl]-pyrimidin-4-yl}-(tetrahydro-pyran-4-ylmethyl)-amine]	1 to 5 µM
0.1 to 1 µM	< 0.1 µM	CC(C)Nc1nc(-c2cccc(-c3cnn(C)c3)c2)ncc1-c1nnc(C(=O)N2CC[C@@H](O)C2)s1 [Example 16, ((R)-3-Hydroxy-pyrrolidin-1-yl)-(5-{4-isopropylamino-2-[3-(1-methyl-1H-pyrazol-4-yl)-phenyl]-pyrimidin-5-yl}-[1,3,4]thiadiazol-2-yl)-methanone]	0.1 to 1 µM
> 5 µM	< 0.1 µM	COC(=O)c1nnc(-c2cnc(-c3cccc(-c4cnn(C)c4)c3)nc2NC2CCCNC2)s1 (stereo not drawn) [Example 18, 5-[2-[3-(1-Methyl-1H-pyrazol-4-yl)-phenyl]-4-(piperidin-3-ylamino)-pyrimidin-5-yl]-[1,3,4]thiadiazole-2-carboxylic Acid Methyl Ester Hydrochloride]	0.1 to 1 µM
> 5 µM	0.1 to 1 µM	COC(=O)c1nnc(-c2cnc(-c3cccc(-c4cnn(C)c4)c3)nc2NCC2CNC2)s1 [Example 19, 5-{4-[(Azetidin-3-ylmethyl)-amino]-2-[3-(1-methyl-1H-pyrazol-4-yl)-phenyl]-pyrimidin-5-yl}-[1,3,4]thiadiazole-2-carboxylic Acid Methyl Ester Trifluoroacetate]	1 to 5 µM
0.1 to 1 µM	< 0.1 µM	Cn1cc(-c2cccc(-c3ncc(-c4cnn(C)c4)c(NC4CCCC4)n3)c2)cn1 [Example 32]	1 to 5 µM
0.1 to 1 µM	0.1 to 1 µM	Cn1cc(-c2cccc(-c3ncc(-c4cnn(C)c4)c(NCCCO)n3)c2)cn1 [Example 35]	1 to 5 µM
1 to 5 µM	0.1 to 1 µM	Cn1cc(-c2cccc(-c3ncc(-c4cnn(C)c4)c(NCCN4CCOCC4)n3)c2)cn1 [Example 36]	0.1 to 1 µM
1 to 5 µM	0.1 to 1 µM	Cn1cc(-c2cccc(-c3ncc(-c4cnn(C)c4)c(NCCN4CCOC4=O)n3)c2)cn1 [Example 38]	> 5 µM
0.1 to 1 µM	0.1 to 1 µM	Cn1cc(-c2cccc(-c3ncc(-c4cnn(C)c4)c(NCC4CC(F)(F)C4)n3)c2)cn1 [Example 42]	0.1 to 1 µM
0.1 to 1 µM	0.1 to 1 µM	Cn1cc(-c2cccc(-c3ncc(-c4cnn(C)c4)c(NCC4(C)CCC4)n3)c2)cn1 [Example 43]	1 to 5 µM
0.1 to 1 µM	0.1 to 1 µM	Cn1cc(-c2cccc(-c3ncc(-c4cnn(C)c4)c(NC4CC(F)(F)C4)n3)c2)cn1 [Example 48]	> 5 µM
0.1 to 1 µM	0.1 to 1 µM	Cn1cc(-c2cccc(-c3ncc(-c4cnn(C)c4)c(N[C@H]4C[C@@H](S(C)(=O)=O)C4)n3)c2)cn1 [Example 49]	> 5 µM
